Values after ≈ are worked out from the molar mass of the structure shown.
Assays:
[1] = target: T1, human C5a receptor (CD88) (Homo sapiens, UniProt P21730); assay: C5a induced enzyme (glucosaminidase) release assay in RBL cells expressing the human C5a receptor (Example 28); assay type: cell-based; settings: inhibition of C5a induced enzyme release, RBL cells with human C5aR; read-out: Activity-range (antagonistic activity, IC50 enzyme release)
T1 construct: expressed in transfected cells; host or cells: rat basophilic leukemia (RBL) cells, stably transfected
T1 sequence (P21730 1-350): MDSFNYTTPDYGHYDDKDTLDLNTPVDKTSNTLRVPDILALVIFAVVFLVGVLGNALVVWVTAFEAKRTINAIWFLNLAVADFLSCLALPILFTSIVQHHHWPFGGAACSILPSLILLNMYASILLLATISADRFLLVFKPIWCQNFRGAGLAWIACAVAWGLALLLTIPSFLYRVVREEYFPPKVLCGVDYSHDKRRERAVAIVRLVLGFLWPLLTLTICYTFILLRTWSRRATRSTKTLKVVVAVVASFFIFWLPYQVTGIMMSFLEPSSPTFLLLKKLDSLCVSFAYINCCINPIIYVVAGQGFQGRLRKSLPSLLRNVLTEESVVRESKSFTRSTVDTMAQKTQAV
Method in brief: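 Rat basophilic leukemia (RBL) cells expressing human C5a receptor, at 2×10^6 cells/ml, primed with cytochalasin B, then incubated with test compound 10 min at 37 °C.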

[2] = Solubility in aqueous HEPES buffer by HPLC (Example 33); assay type: physicochemical; settings: kinetic from dmso stock
Method: To determine the solubility the compound to be measured is dissolved (e.g, […] of a 5 mM solution in DMSO) in organic solvent (e.g. 198 μl DMSO) as well as in aqueous buffer solution (e.g. 198 μl HEPES buffer). Both solutions are analyzed via analytical HPLC and the areas under the peaks are compared. The value for the organic solution is taken as 100%.

[3] = test system: C5a induced neutropenia; assay: C5a induced neutropenia in gerbils (Example 35); assay type: in vivo, gerbils (Meriones unguiculatus); settings: gerbil
Source text: C5a induced neutropenia is a model for shock induced diseases (e.g. septic shock), where amongst others the systemic role of C5a (blood pressure decrease, neutropenia) plays an important role. The reason for the decrease of the neutrophils in the circulation is their binding to the vessel walls due to the C5a stimulus. These processes of neutrophil recruitment are playing an important role in many other diseases like reperfusion injury. […]
Male gerbils (Meriones unguiculatus) are anaesthesized i.p. with ketamine (80 mg/kg) and xylazine (12 mg/kg). The animals are intubated and a catheter is inserted in the jugular vene and the animals are subjected to the following procedure:
1. The gerbils are pre-treated with vehicle or the compounds of the present invention 80 (3 mg/kg) or 131 (1 mg/kg) via i.v. infusion.
One minute before compound treatment a blood sample is taken.
2. 10 minutes after the infusion of the compounds the gerbils are treated i.v. with 100 μg/kg hrC5a. […]
White blood cell counts are measured with a haematology-cell-counter. […]
The differential cell count is determined as the sum of neutrophils, eosinophile, easophile, lymphocytes and monocytes from 100 cells. Then, the percentage of neutrophils in relation to all white blood cells is determined. […]

[4] = target: T2, C5a receptor (Homo sapiens, UniProt P21730); settings: cited from earlier work
T2 sequence (P21730 1-350): T1 sequence (P21730 1-350)

[5] = target: T2, C5a receptor; settings: cited from earlier work; remark: listed apart in the source
[6] = Stability (shelf life) as solid TFA salt, RP-HPLC (Example 25); assay type: physicochemical; settings: light, room temperature, up to 7 days
Method: The fractions containing the desired compound are lyophilized. In this way 1-40 mg of the compounds 11 and 13 are isolated as solid. Due to the basic amino groups the compounds are obtained as TFA salts. 0.5-10 mg of the solid are stored under the influence of light at room temperature to determine their stability over time.
The conditions were as follows:
FIG. 1 A): after purification via HPLC (solution in MeCN/H2O/TFA),
FIG. 1 B) after lyophilization (0 days of storage as solid)
FIG. 1 C) after 7 days of storage as solid

[7] = target: T2, C5a receptor; settings: cited from earlier work; remark: listed apart in the source

CCc1ccc(N(C(=O)Nc2c(CC)c(N)cc(Cl)c2CC)[C@@H](C)c2ccc(Cl)cc2)cc1 [compound 80, (S)-3-(3-amino-5-chloro-2,6-diethyl-phenyl)-1-[1-(4-chlor-phenyl)-ethyl]-1-(4-ethyl-phenyl)-urea]
IC50 [1]: < 60 nM | solubility [2]: 4 µM (≈ 1.94 µg/mL) | Effect on C5a induced neutropenia ([3]; 3 mg/kg i.v. infusion 10 min before 100 μg/kg hrC5a): significantly reduces C5a induced neutropenia

NC(N)=Nc1ccc(OCCc2ccccc2)c(-c2ccccc2)c1 [Compound 5]
activity [4]: 0.8 µM

CCc1c(N)cc(Cl)c(CC)c1NC(=O)N(c1ccc(NC)cc1)[C@@H](C)c1ccc(Cl)cc1 [compound 131, (S)-3-(3-amino-5-chloro-2,6-diethyl-phenyl)-1-[1-(4-chloro-phenyl)-ethyl]-1-(4-methylamino-phenyl)-urea]
Effect on C5a induced neutropenia ([3]; 1 mg/kg i.v. infusion 10 min before 100 μg/kg hrC5a): significantly reduces C5a induced neutropenia

CC(C)Cc1ccc([C@@H](C)C(=O)NCCC[N+]2(C)CCCCC2)cc1.[I-] [Compound 6]
activity in a chemotaxis assay [5]: 24 µM

CC(C)c1ccc(N(Cc2ccc(N(C)C)cc2)C(=O)Nc2c(C(C)C)cccc2C(C)C)cc1 [Compound 11, 3-(2,6-diisopropyl-phenyl)-1-(4-dimethylamino-benzyl)-1-(4-isopropyl-phenyl)-urea, reference compound]
Stability on storage as solid [6]: not stable | IC50 [1]: 200 to 5000 nM | binding affinity to the C5a receptor [7]: 100 nM

From US8071810B2, “C5a receptor antagonists” (Jerini AG, priority 2005, dated 2011)
